# Columns and labels:
# Assay in all cases: Cell viability drug screen, 12-point dose-response AUC
# Format in all cases: cell-based, human
# AGS = settings: 72 hours; for Average Area Under the Viability Curve (AUC), AUC norm value: AGS cells (non-SEM subtype)
# Outline: (§1)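 Gastric cancer lines seeded 5×10^3 cells/well, dosed after 24 h with half-log 12-point compound dilutions (DMSO 0.5% control), then 72 h at 37 °C. Viability by luminescence, normalized to DMSO; AUC by trapezoidal method, averaged over repeats.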
# Hs746T = settings: 72 hours; for Average Area Under the Viability Curve (AUC), AUC norm value: Hs746T cells (SEM subtype)
# Outline: (§2)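 Each cell line receives a twelve-point half-log titration of drug beginning 24 h after plating 5×10^3 cells per well. Following 72 h culture at 37 °C, luminescent signal is recorded and expressed versus vehicle. AUC is derived by the trapezoidal method.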
# KATO3 = KATO3 cells, 72 hours
# Outline: as §2
# MKN1 = MKN1 cells, 72 hours
# Outline: as §2
# MKN28 = MKN28 cells, 72 hours
# Outline: as §2
# MKN45 = settings: 72 hours; for Average Area Under the Viability Curve (AUC), AUC norm value: MKN45 cells (non-SEM subtype)
# Outline: as §1
# MKN74 = MKN74 cells, 72 hours
# Outline: as §1
# NCC19 = NCC19 cells, 72 hours
# Outline: as §2
# NCC20 = NCC20 cells, 72 hours
# Outline: as §2
# NCC24 = NCC24 cells, 72 hours
# Outline: as §2
# NCC59 = NCC59 cells, 72 hours
# Outline: as §2
# NCI_N87 = NCI_N87 cells, 72 hours
# Outline: as §2
# OCUM1 = OCUM1 cells, 72 hours
# Outline: as §2
# SK4 = settings: 72 hours; for Average Area Under the Viability Curve (AUC), AUC norm value: SK4 cells (SEM subtype)
# Outline: as §2
# SNU16 = SNU16 cells, 72 hours
# Outline: as §2
# SNU1750 = settings: 72 hours; for Average Area Under the Viability Curve (AUC), AUC norm value: SNU1750 cells (SEM subtype)
# Outline: as §2
# SNU1967 = SNU1967 cells, 72 hours
# Outline: as §2
# SNU1 = SNU1 cells, 72 hours
# Outline: as §2
# SNU216 = settings: 72 hours; for Average Area Under the Viability Curve (AUC), AUC norm value: SNU216 cells (non-SEM subtype)
# Outline: as §1
# SNU484 = settings: 72 hours; for Average Area Under the Viability Curve (AUC), AUC norm value: SNU484 cells (SEM subtype)
# Outline: as §2
# SNU601 = SNU601 cells, 72 hours
# Outline: as §2
# SNU620 = SNU620 cells, 72 hours
# Outline: as §2
# SNU638 = SNU638 cells, 72 hours
# Outline: as §2
# SNU668 = settings: 72 hours; for Average Area Under the Viability Curve (AUC), AUC norm value: SNU668 cells (SEM subtype)
# Outline: as §2
# SNU719 = SNU719 cells, 72 hours
# Outline: as §1
# YCC11 = settings: 72 hours; for Average Area Under the Viability Curve (AUC), AUC norm value: YCC11 cells (SEM subtype)
# Outline: as §2
# YCC2 = YCC2 cells, 72 hours
# Outline: as §2
# YCC3 = YCC3 cells, 72 hours
# Outline: as §2
# FU97 = test system: FU97; design: Average Area Under the Viability Curve (AUC), AUC norm value: scale not given here; settings: FU97 cells, 72 hours
# Outline: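 Trapezoidal AUC of a 12-point, DMSO-normalized dose-response curve. Luminescent viability was measured after 72 h of exposure at 37° C to half-log serial dilutions (0.5% DMSO control), dosed 24 h after plating FU97 cells at 5×10^3 per well.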
smiles,measurement,setting,value
CC[C@@H]1C(=O)N(C)c2cnc(Nc3ccc(C(=O)NC4CCN(C)CC4)cc3OC)nc2N1C1CCCC1 [BI 2536],"Average Area Under the Viability Curve (AUC), AUC norm value",AGS,−1.22
same,"Average Area Under the Viability Curve (AUC), AUC norm value",Hs746T,1.951
same,"Average Area Under the Viability Curve (AUC), AUC norm value",KATO3,4.704
same,"Average Area Under the Viability Curve (AUC), AUC norm value",MKN1,−0.2123
same,"Average Area Under the Viability Curve (AUC), AUC norm value",MKN28,−1.69
same,"Average Area Under the Viability Curve (AUC), AUC norm value",MKN45,0.09661
same,"Average Area Under the Viability Curve (AUC), AUC norm value",MKN74,−0.6584
same,"Average Area Under the Viability Curve (AUC), AUC norm value",NCC19,3.475
same,"Average Area Under the Viability Curve (AUC), AUC norm value",NCC20,0.5722
same,"Average Area Under the Viability Curve (AUC), AUC norm value",NCC24,−0.8832
same,"Average Area Under the Viability Curve (AUC), AUC norm value",NCC59,3.556
same,"Average Area Under the Viability Curve (AUC), AUC norm value",NCI_N87,−1.006
same,"Average Area Under the Viability Curve (AUC), AUC norm value",OCUM1,2.226
same,"Average Area Under the Viability Curve (AUC), AUC norm value",SK4,−1.128
same,"Average Area Under the Viability Curve (AUC), AUC norm value",SNU16,0.02031
same,"Average Area Under the Viability Curve (AUC), AUC norm value",SNU1750,−0.8076
same,"Average Area Under the Viability Curve (AUC), AUC norm value",SNU1967,0.0237
same,"Average Area Under the Viability Curve (AUC), AUC norm value",SNU1,−1.064
same,"Average Area Under the Viability Curve (AUC), AUC norm value",SNU216,2.038
same,"Average Area Under the Viability Curve (AUC), AUC norm value",SNU484,0
same,"Average Area Under the Viability Curve (AUC), AUC norm value",SNU601,0.0215
same,"Average Area Under the Viability Curve (AUC), AUC norm value",SNU620,−1.078
same,"Average Area Under the Viability Curve (AUC), AUC norm value",SNU638,0.1863
same,"Average Area Under the Viability Curve (AUC), AUC norm value",SNU668,−0.4211
same,"Average Area Under the Viability Curve (AUC), AUC norm value",SNU719,3.291
same,"Average Area Under the Viability Curve (AUC), AUC norm value",YCC11,−0.3817
same,"Average Area Under the Viability Curve (AUC), AUC norm value",YCC2,−0.1875
same,"Average Area Under the Viability Curve (AUC), AUC norm value",YCC3,3.315
same,"Average Area Under the Viability Curve (AUC), AUC norm value",FU97,−0.4841
"O=C(/C=C/c1cccc(S(=O)(=O)Nc2ccccc2)c1)NO [Belinostat (PXD101), Belinostat]","Average Area Under the Viability Curve (AUC), AUC norm value",AGS,−0.9372
same,"Average Area Under the Viability Curve (AUC), AUC norm value",Hs746T,0.5598
same,"Average Area Under the Viability Curve (AUC), AUC norm value",KATO3,0.7544
same,"Average Area Under the Viability Curve (AUC), AUC norm value",MKN1,0.9981
same,"Average Area Under the Viability Curve (AUC), AUC norm value",MKN28,−0.3952
same,"Average Area Under the Viability Curve (AUC), AUC norm value",MKN45,2.493
same,"Average Area Under the Viability Curve (AUC), AUC norm value",MKN74,−0.1835
same,"Average Area Under the Viability Curve (AUC), AUC norm value",NCC19,1.206
same,"Average Area Under the Viability Curve (AUC), AUC norm value",NCC20,0
same,"Average Area Under the Viability Curve (AUC), AUC norm value",NCC24,−1.095
same,"Average Area Under the Viability Curve (AUC), AUC norm value",NCC59,2.683
same,"Average Area Under the Viability Curve (AUC), AUC norm value",NCI_N87,0.02343
same,"Average Area Under the Viability Curve (AUC), AUC norm value",OCUM1,−0.225
same,"Average Area Under the Viability Curve (AUC), AUC norm value",SK4,−0.3048
same,"Average Area Under the Viability Curve (AUC), AUC norm value",SNU16,−1.577
same,"Average Area Under the Viability Curve (AUC), AUC norm value",SNU1750,−0.902
same,"Average Area Under the Viability Curve (AUC), AUC norm value",SNU1967,−0.3122
same,"Average Area Under the Viability Curve (AUC), AUC norm value",SNU1,0.1147
same,"Average Area Under the Viability Curve (AUC), AUC norm value",SNU216,−0.2541
same,"Average Area Under the Viability Curve (AUC), AUC norm value",SNU484,0.9966
same,"Average Area Under the Viability Curve (AUC), AUC norm value",SNU601,1.495
same,"Average Area Under the Viability Curve (AUC), AUC norm value",SNU620,−1.0681
same,"Average Area Under the Viability Curve (AUC), AUC norm value",SNU638,−0.5011
same,"Average Area Under the Viability Curve (AUC), AUC norm value",SNU668,0.6908
same,"Average Area Under the Viability Curve (AUC), AUC norm value",SNU719,2.329
same,"Average Area Under the Viability Curve (AUC), AUC norm value",YCC11,−0.5556
same,"Average Area Under the Viability Curve (AUC), AUC norm value",YCC2,0.1706
same,"Average Area Under the Viability Curve (AUC), AUC norm value",YCC3,1.065
same,"Average Area Under the Viability Curve (AUC), AUC norm value",FU97,−0.9726
"CC(C)C[C@H](NC(=O)[C@H](Cc1ccccc1)NC(=O)c1cnccn1)B(O)O [Bortezomib (Velcade), Bortezomib]","area under the viability curve (AUC), normalized","AGS; AGS cells, 12-point dose-response",−0.1894
same,"area under the viability curve (AUC), normalized","Hs746T; Hs746T cells, 12-point dose-response",−0.9394
same,"area under the viability curve (AUC), normalized",KATO3; 12-point dose-response,1.082
same,"area under the viability curve (AUC), normalized",MKN1; 12-point dose-response,0.3149
same,"area under the viability curve (AUC), normalized",MKN28; 12-point dose-response,−0.416
same,"area under the viability curve (AUC), normalized","MKN45; MKN45 cells, 12-point dose-response",0.1641
same,"area under the viability curve (AUC), normalized",MKN74; 12-point dose-response,0
same,"area under the viability curve (AUC), normalized",NCC19; 12-point dose-response,−0.6969
same,"area under the viability curve (AUC), normalized",NCC20; 12-point dose-response,−0.1078
same,"area under the viability curve (AUC), normalized",NCC24; 12-point dose-response,−0.3911
same,"area under the viability curve (AUC), normalized",NCC59; 12-point dose-response,0.8821
same,"area under the viability curve (AUC), normalized",NCI_N87; 12-point dose-response,1.569
same,"area under the viability curve (AUC), normalized",OCUM1; 12-point dose-response,2.346
same,"area under the viability curve (AUC), normalized","SK4; SK4 cells, 12-point dose-response",0.3944
same,"area under the viability curve (AUC), normalized",SNU16; 12-point dose-response,−0.0987
same,"area under the viability curve (AUC), normalized","SNU1750; SNU1750 cells, 12-point dose-response",−1.326
same,"area under the viability curve (AUC), normalized",SNU1967; 12-point dose-response,−0.8453
same,"area under the viability curve (AUC), normalized",SNU1; 12-point dose-response,−0.3028
same,"area under the viability curve (AUC), normalized","SNU216; SNU216 cells, 12-point dose-response",0.4223
same,"area under the viability curve (AUC), normalized","SNU484; SNU484 cells, 12-point dose-response",−0.6338
same,"area under the viability curve (AUC), normalized",SNU601; 12-point dose-response,−0.07383
same,"area under the viability curve (AUC), normalized",SNU620; 12-point dose-response,−0.6115
same,"area under the viability curve (AUC), normalized",SNU638; 12-point dose-response,0.06564
same,"area under the viability curve (AUC), normalized","SNU668; SNU668 cells, 12-point dose-response",1.358
same,"area under the viability curve (AUC), normalized",SNU719; 12-point dose-response,1.081
same,"area under the viability curve (AUC), normalized","YCC11; YCC11 cells, 12-point dose-response",−0.6649
same,"area under the viability curve (AUC), normalized",YCC2; 12-point dose-response,0.6953
same,"area under the viability curve (AUC), normalized",YCC3; 12-point dose-response,2.791
same,"area under the viability curve (AUC), normalized",FU97; 12-point dose-response,0.01494
